{
  "source": "patent US20180077929A1",
  "about": "“METHODS AND SYSTEMS FOR TREATING MEDICAL DEVICES AND FLUIDS” (priority 2016, published 2018)",
  "assay": "Kinetics of removal of LPS with different agitation techniques and stearate salts",
  "format": "biochemical",
  "conditions": "for Endotoxin Detected: 5 mL SRW, baseline 1,502 EU; for Percent (%) Removed: SRW baseline 1,502 EU",
  "procedure": "5 mL of SRW was added to each of the tubes. Each solution was tested for endotoxin removal after agitation based on with sonication, vortexing, or test tube rolling. Sonication samples were sonicated at each indicated time interval for 30 seconds at a magnitude of 30. Vortex samples were vortexed at each indicated time interval for 30 seconds at 2500 RPM. Rolling samples were constantly rolling at 10 rpm. The samples were tested on the MCS for endotoxin at 1 minute, 20 minutes, 40 minutes, 60 minutes, and 80 minutes.",
  "note": "Marks after values point to notes of the source that are not given here.",
  "data": [
    {"molecule": "CCCCCCCCCCCCCCCCCC(=O)[O-].[Al+3].[OH-].[OH-]", "note": "[Aluminum Monostearate]", "values": [
      {"measurement": "Endotoxin Detected", "setting": "Rolling, 1 minute", "value": "221* EU"},
      {"measurement": "Percent (%) Removed", "setting": "Rolling, 1 minute", "value": 85.3, "unit": "%"},
      {"measurement": "Endotoxin Detected", "setting": "Rolling, 20 minutes", "value": "1,260 EU"},
      {"measurement": "Percent (%) Removed", "setting": "Rolling, 20 minutes", "value": 16.1, "unit": "%"},
      {"measurement": "Endotoxin Detected", "setting": "Rolling, 40 minutes", "value": "1,240 EU"},
      {"measurement": "Percent (%) Removed", "setting": "Rolling, 40 minutes", "value": 17.4, "unit": "%"},
      {"measurement": "Endotoxin Detected", "setting": "Rolling, 60 minutes", "value": 672, "unit": "EU"},
      {"measurement": "Percent (%) Removed", "setting": "Rolling, 60 minutes", "value": 55.3, "unit": "%"},
      {"measurement": "Endotoxin Detected", "setting": "Rolling, 80 minutes", "value": "1,220 EU"},
      {"measurement": "Percent (%) Removed", "setting": "Rolling, 80 minutes", "value": 18.8, "unit": "%"},
      {"measurement": "Endotoxin Detected", "setting": "Sonication, 1 minute", "value": 626, "unit": "EU"},
      {"measurement": "Percent (%) Removed", "setting": "Sonication, 1 minute", "value": 58.3, "unit": "%"},
      {"measurement": "Endotoxin Detected", "setting": "Sonication, 20 minutes", "value": 406, "unit": "EU"},
      {"measurement": "Percent (%) Removed", "setting": "Sonication, 20 minutes", "value": 73, "unit": "%"},
      {"measurement": "Endotoxin Detected", "setting": "Sonication, 40 minutes", "value": 375, "unit": "EU"},
      {"measurement": "Percent (%) Removed", "setting": "Sonication, 40 minutes", "value": 75, "unit": "%"},
      {"measurement": "Endotoxin Detected", "setting": "Sonication, 60 minutes", "value": 434, "unit": "EU"},
      {"measurement": "Percent (%) Removed", "setting": "Sonication, 60 minutes", "value": 71.1, "unit": "%"},
      {"measurement": "Endotoxin Detected", "setting": "Sonication, 80 minutes", "value": 291, "unit": "EU"},
      {"measurement": "Percent (%) Removed", "setting": "Sonication, 80 minutes", "value": 80.6, "unit": "%"},
      {"measurement": "Endotoxin Detected", "setting": "Vortexing, 1 minute", "value": 817, "unit": "EU"},
      {"measurement": "Percent (%) Removed", "setting": "Vortexing, 1 minute", "value": 45.6, "unit": "%"},
      {"measurement": "Endotoxin Detected", "setting": "Vortexing, 20 minutes", "value": 849, "unit": "EU"},
      {"measurement": "Percent (%) Removed", "setting": "Vortexing, 20 minutes", "value": 43.5, "unit": "%"},
      {"measurement": "Endotoxin Detected", "setting": "Vortexing, 40 minutes", "value": 786, "unit": "EU"},
      {"measurement": "Percent (%) Removed", "setting": "Vortexing, 40 minutes", "value": 47.7, "unit": "%"},
      {"measurement": "Endotoxin Detected", "setting": "Vortexing, 60 minutes", "value": 801, "unit": "EU"},
      {"measurement": "Percent (%) Removed", "setting": "Vortexing, 60 minutes", "value": 46.7, "unit": "%"},
      {"measurement": "Endotoxin Detected", "setting": "Vortexing, 80 minutes", "value": 757, "unit": "EU"},
      {"measurement": "Percent (%) Removed", "setting": "Vortexing, 80 minutes", "value": 49.6, "unit": "%"}
    ]},
    {"molecule": "Magnesium Stearate", "values": [
      {"measurement": "Endotoxin Detected", "setting": "Rolling, 1 minute", "value": "1,060 EU"},
      {"measurement": "Percent (%) Removed", "setting": "Rolling, 1 minute", "value": 29.4, "unit": "%"},
      {"measurement": "Endotoxin Detected", "setting": "Rolling, 20 minutes", "value": "1,120 EU"},
      {"measurement": "Percent (%) Removed", "setting": "Rolling, 20 minutes", "value": 25.4, "unit": "%"},
      {"measurement": "Endotoxin Detected", "setting": "Rolling, 40 minutes", "value": "1,060 EU"},
      {"measurement": "Percent (%) Removed", "setting": "Rolling, 40 minutes", "value": 29.4, "unit": "%"},
      {"measurement": "Endotoxin Detected", "setting": "Rolling, 60 minutes", "value": "1,120 EU"},
      {"measurement": "Percent (%) Removed", "setting": "Rolling, 60 minutes", "value": 25.4, "unit": "%"},
      {"measurement": "Endotoxin Detected", "setting": "Rolling, 80 minutes", "value": "1,190 EU"},
      {"measurement": "Percent (%) Removed", "setting": "Rolling, 80 minutes", "value": 20.8, "unit": "%"},
      {"measurement": "Endotoxin Detected", "setting": "Sonication, 1 minute", "value": 743, "unit": "EU"},
      {"measurement": "Percent (%) Removed", "setting": "Sonication, 1 minute", "value": 50.5, "unit": "%"},
      {"measurement": "Endotoxin Detected", "setting": "Sonication, 20 minutes", "value": 716, "unit": "EU"},
      {"measurement": "Percent (%) Removed", "setting": "Sonication, 20 minutes", "value": 52.3, "unit": "%"},
      {"measurement": "Endotoxin Detected", "setting": "Sonication, 40 minutes", "value": 824, "unit": "EU"},
      {"measurement": "Percent (%) Removed", "setting": "Sonication, 40 minutes", "value": 45.1, "unit": "%"},
      {"measurement": "Endotoxin Detected", "setting": "Sonication, 60 minutes", "value": 884, "unit": "EU"},
      {"measurement": "Percent (%) Removed", "setting": "Sonication, 60 minutes", "value": 41.1, "unit": "%"},
      {"measurement": "Endotoxin Detected", "setting": "Sonication, 80 minutes", "value": 703, "unit": "EU"},
      {"measurement": "Percent (%) Removed", "setting": "Sonication, 80 minutes", "value": 53.2, "unit": "%"},
      {"measurement": "Endotoxin Detected", "setting": "Vortexing, 1 minute", "value": 884, "unit": "EU"},
      {"measurement": "Percent (%) Removed", "setting": "Vortexing, 1 minute", "value": 41.1, "unit": "%"},
      {"measurement": "Endotoxin Detected", "setting": "Vortexing, 20 minutes", "value": "1,000 EU"},
      {"measurement": "Percent (%) Removed", "setting": "Vortexing, 20 minutes", "value": 33.4, "unit": "%"},
      {"measurement": "Endotoxin Detected", "setting": "Vortexing, 40 minutes", "value": 901, "unit": "EU"},
      {"measurement": "Percent (%) Removed", "setting": "Vortexing, 40 minutes", "value": 40, "unit": "%"},
      {"measurement": "Endotoxin Detected", "setting": "Vortexing, 60 minutes", "value": 958, "unit": "EU"},
      {"measurement": "Percent (%) Removed", "setting": "Vortexing, 60 minutes", "value": 36.2, "unit": "%"},
      {"measurement": "Endotoxin Detected", "setting": "Vortexing, 80 minutes", "value": "1,060 EU"},
      {"measurement": "Percent (%) Removed", "setting": "Vortexing, 80 minutes", "value": 29.4, "unit": "%"}
    ]}
  ]
}
